Reference: patent EP4729529A1, “PREPARATION OF PEPTIDE INHIBITOR OF INTERLEUKIN-23 RECEPTOR AND USE THEREOF” (Xizang Haisco Pharmaceutical Co., Ltd., priority 2023, dated 2024)
Starred links: 1 amine or outer side, 2 acyl side, 3 side chain; linkers in the order of their positions; H or OH if unused. Positions of bridges follow the written chain, without caps; N, C: chain ends. Non-standard residues stand in square brackets, D forms with d. Residues, ends and D or L forms follow the SMILES beside them. Phe(4-OC2H4NH2,2,3-(CH2)3) = NCCOc1ccc(C[C@H](N)C(=O)O)c2c1CCC2; Trp(7-cPr) = N[C@@H](Cc1c[nH]c2c(C3CC3)cccc12)C(=O)O; Trp(7-Me) = Cc1cccc2c(C[C@H](N)C(=O)O)c[nH]c12; 2Nal = N[C@@H](Cc1ccc2ccccc2c1)C(=O)O; X1 = O=C(C(N[*:1])C1(S[*:3])CC1)[*:2]; Thp(SO2) = NC1(C(=O)O)CCS(=O)(=O)CC1; AEF = NCCOc1ccc(C[C@H](N)C(=O)O)cc1; 3Pal = N[C@@H](Cc1cccnc1)C(=O)O; Cit = NC(=O)NCCC[C@H](N)C(=O)O; Pen = CC(C)(S)[C@H](N)C(=O)O; Dab = NCC[C@H](N)C(=O)O; Thp = NC1(C(=O)O)CCOCC1; Sar = CNCC(=O)O

Assays:
[1] = molecular target: (Homo sapiens, UniProt Q5VWK5); test: IL-23-stimulated pSTAT3 detection assay in PBMCs (ELISA); format: cell-based; settings: rhIL23 stimulation 30 minutes, read-out: pSTAT3 inhibition/IC50
Protocol: 3. IL-23-stimulated pSTAT3 detection assay in PBMCs
Cryopreserved human PBMCs were thawed, and seeded onto a plate previously covered with an anti-CD3 antibody at 1 × 10^6 cells/well. Then, an anti-CD28 antibody was added to the plate, and the cells were incubated at 37°C with 5% CO2 for 5 days. On Day 5, the cells were seeded onto a 96-well plate at a density of 100K cells/well after 4 hours of stimulation by FBS starvation. The diluted Compound was transferred into the 96-well cell culture plate, and the plate was incubated at 37°C with 5% CO2 for 1 hour. rhIL23 (R&D, 1290-IL) was added to the cell culture plate, and the plate was incubated at 37°C with 5% CO2 for 30 minutes. The cells in the wells were lysed on ice with a lysis buffer containing 1× PHOSstop solution for 30 minutes, and the plate was centrifuged at 1000 rpm for 1 minute. Then, the supernatant was transferred into a 96-well ELISA plate, and pSTAT3 ELISA assay was performed according to the instructions of the kit (CST, 7300CA). Absorbance values at […] were read on PHERAstar FSX (BMG LRBTECH). The inhibition rate of the compounds was assessed using the following formula, and IC50 values were obtained by fitting with Graphpad.
(§1) Calculation formula of inhibition rate: [formula] • where Data negative: mean of DMSO control group; and • Data positive: mean of non-IL23-stimulated group
The calculation formula of IC50 was as follows: Y = Bottom + (Top−Bottom)/(1+10^(∧)((LogIC50−X)*HillSlope)) [formula] • where X: concentration of compound; and • Y: inhibition rate of compound. Table 3. pSTAT3 inhibition

[2] = molecular target: T1, IL-23R (Homo sapiens, UniProt Q5VWK5); test: IL-23R reporter gene assay (HEK-blue IL23 reporter gene cell line, rhIL23 stimulation); format: cell-based; settings: Inhibition of IL-23R, rhIL23 1 ng/mL, 24 hours
T1 construct: host or cells: HEK-blue IL23 reporter gene cell line
T1 sequence (Q5VWK5 24-629): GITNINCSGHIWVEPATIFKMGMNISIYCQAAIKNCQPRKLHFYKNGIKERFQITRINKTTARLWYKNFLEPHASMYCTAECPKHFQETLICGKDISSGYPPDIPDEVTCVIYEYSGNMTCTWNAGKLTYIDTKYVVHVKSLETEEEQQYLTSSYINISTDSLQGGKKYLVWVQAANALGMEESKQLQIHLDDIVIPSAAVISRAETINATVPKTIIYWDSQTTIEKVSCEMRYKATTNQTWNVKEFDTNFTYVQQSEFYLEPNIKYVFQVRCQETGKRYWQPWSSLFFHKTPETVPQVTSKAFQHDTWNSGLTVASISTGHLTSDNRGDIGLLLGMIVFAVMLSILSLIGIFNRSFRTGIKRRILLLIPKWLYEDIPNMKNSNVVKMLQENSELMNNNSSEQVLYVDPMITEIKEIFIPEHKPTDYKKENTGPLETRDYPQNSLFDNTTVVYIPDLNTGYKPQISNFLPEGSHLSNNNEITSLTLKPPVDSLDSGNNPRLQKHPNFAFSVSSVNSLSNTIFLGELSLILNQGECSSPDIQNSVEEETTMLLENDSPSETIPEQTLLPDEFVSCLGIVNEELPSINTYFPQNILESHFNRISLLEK
Protocol: 2. IL-23R reporter gene assay
The purpose of this assay was to assess the ability of compounds to inhibit the binding of IL23p19 to IL23R in a reporter gene system. The HEK-blue IL23 reporter gene cell line (Invivogen, hkb-il23) was cultured in DMEM + 10% FBS + 100 ug/mL Normocin medium. When the cell density reached 80%-90%, 5000 cells/well were plated into a 384-well plate, and the plate was incubated overnight at 37°C with 5% CO2. Then, the compound stock solution was diluted in DMSO, and 40 nL of the dilution was transferred into the 384-well culture plate by Echo. The plate was incubated at 37°C with 5% CO2 for 0.5 hours. 40 nL/well of rhIL23 (R&D, 1290-IL) was added to the 384-well cell culture plate at a final concentration of 1 ng/mL, and the plate was incubated at 37°C with 5% CO2 for 24 hours. 18 µL of Quanti-Blue™ solution was added to a new 384-well plate. 2 µL/well of cell culture supernatant was transferred into the 384-well plate prepared in Step 6, and the plate was incubated at 37°C with 5% CO2 for 1 hour. Absorbance values at […] were read on BMG. The binding ability of the compounds was assessed using the following formula, and IC50 values were obtained by fitting with Graphpad.
as §1
The calculation formula of IC50 was as follows: Y = Bottom + (Top−Bottom)/(1+10^(∧)((LogIC50−X)*HillSlope)) [formula] • where X: concentration of compound; and • Y: inhibition rate of compound Table 2. Inhibition of IL-23R by test compounds

[3] = molecular target: T2, IL-23α/IL-12β and IL-23R (Homo sapiens, UniProt Q5VWK5); test: IL-23α/IL-12β and IL-23R binding assay (TR-FRET/HTRF); settings: inhibition of the binding of IL-23α/IL-12β to IL-23R, TR-FRET; both proteins 0.3 nM
T2 construct: purchased ACRO ILR-H82F3 (IL-23R); ILB-H52W5 (IL-23α/IL-12β)
T2 sequence (Q5VWK5 24-353 limits assumed): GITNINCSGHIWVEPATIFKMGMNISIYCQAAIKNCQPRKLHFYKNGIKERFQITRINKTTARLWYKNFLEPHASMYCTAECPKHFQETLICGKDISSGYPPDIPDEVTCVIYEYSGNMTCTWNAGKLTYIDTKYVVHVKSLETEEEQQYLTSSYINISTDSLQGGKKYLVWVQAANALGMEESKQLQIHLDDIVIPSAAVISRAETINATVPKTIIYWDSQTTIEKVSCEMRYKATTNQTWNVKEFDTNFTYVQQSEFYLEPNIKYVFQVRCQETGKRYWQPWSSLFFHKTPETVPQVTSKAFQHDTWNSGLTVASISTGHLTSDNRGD
Summary of the method: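 TR-FRET with IL-23α/IL-12β and IL-23R each at 0.3 nM in PPI buffer; compound preincubated with IL-23α/IL-12β 60 min at 25°C, then IL-23R and Tb/d2 detection reagents added for 60 min. HTRF 665/620 ratio; IC50 by nonlinear regression.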

[4] = Pharmacokinetic test in mice (intravenous and intragastric, plasma LC-MS/MS); format: in vivo; settings: male, mouse, Balb/c mice
Protocol: 4. Pharmacokinetic test in mice
4.1. Experimental animals: Male Balb/c mice (20-25 g, 18 mice/compound) were purchased from Chengdu Dossy Experimental Animals Co., Ltd.
4.2. Experimental design: On the day of the experiment, the Balb/c mice were randomly grouped by body weight. The animals were fasted with water available for 12-14 h one day before the administration, and were fed 4 h after the administration. Table 4. Administration information
Before and after administration, 0.06 mL of blood was taken from the orbit under isoflurane anaesthesia, and placed in an EDTAK2 centrifuge tube. The tube was centrifuged at 5000 rpm at 4°C for 10 min, and plasma was collected. The blood collection time points for the intravenous group and intragastric group were both 0 min, 5 min, 15 min, 30 min, 1 h, 2 h, 4 h, 6 h, 8 h, and 24 h. Before analysis and detection, all samples were stored at -80°C, and the samples were quantitatively analysed by LC-MS/MS. Table 5. Pharmacokinetic parameters of test compounds in mouse plasma

(Homo sapiens, UniProt Q5VWK5), sequence (Q9NPF7 20-189 partner, other chains not shown): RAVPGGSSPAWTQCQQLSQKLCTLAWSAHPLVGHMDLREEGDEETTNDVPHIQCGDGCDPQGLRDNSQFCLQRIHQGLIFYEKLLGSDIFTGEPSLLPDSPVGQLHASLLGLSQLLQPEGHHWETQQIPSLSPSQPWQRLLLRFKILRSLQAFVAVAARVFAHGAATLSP
(Homo sapiens, UniProt Q5VWK5), sequence (P29460 23-328 partner, other chains not shown): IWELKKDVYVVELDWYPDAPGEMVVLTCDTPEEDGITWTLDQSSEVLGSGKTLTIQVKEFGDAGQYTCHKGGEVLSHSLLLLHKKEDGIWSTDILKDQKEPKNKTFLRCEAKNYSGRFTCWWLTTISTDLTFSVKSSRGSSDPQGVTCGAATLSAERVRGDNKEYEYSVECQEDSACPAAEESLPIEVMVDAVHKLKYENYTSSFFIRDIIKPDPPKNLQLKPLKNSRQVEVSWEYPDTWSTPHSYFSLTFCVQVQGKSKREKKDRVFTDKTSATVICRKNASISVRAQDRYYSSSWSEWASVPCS

Structure (SMILES)	IC50 [1]	IC50 [2]	IC50 [3]	AUC(0-t) ([4]; iv, i.v. (1 mg/kg))	clearance ([4]; iv, i.v. (1 mg/kg))	Vd ([4]; iv, i.v. (1 mg/kg), read-out: Vdss)	AUC(0-t) ([4]; po, i.g. (10 mg/kg))	bioavailability ([4]; po, i.g. (10 mg/kg))
CC(=O)N[C@@H]1C(=O)N[C@@H](Cc2c[nH]cn2)C(=O)N[C@@H]([C@@H](C)O)C(=O)N[C@@H](Cc2c[nH]c3c(C)cccc23)C(=O)N[C@@H](CCC(N)=O)C(=O)N[C@H](C(=O)N[C@@H](Cc2ccc(OCCN)c3c2CCC3)C(=O)N[C@@H](Cc2ccc3ccccc3c2)C(=O)NC2(C(=O)N[C@@H](CCC(=O)O)C(=O)N[C@@H](CC(N)=O)C(=O)N[C@@H](Cc3cccnc3)C(=O)N(C)CC(N)=O)CCS(=O)(=O)CC2)C(C)(C)SSC1(C)C [Compound 15] (Ac-[Pen]HT[Trp(7-Me)]Q[Pen][Phe(4-OC2H4NH2,2,3-(CH2)3)][2Nal][Thp(SO2)]EN[3Pal][Sar]-NH2; disulfide 1-6)	6.2 pM	5260 pM	75 pM	–	–	–	–	–
CC(=O)NCCCC[C@@H]1NC(=O)[C@H](Cc2c[nH]c3c(C)cccc23)NC(=O)[C@H]([C@@H](C)O)NC(=O)[C@H](Cc2c[nH]cn2)NC(=O)[C@@H](NC(C)=O)C(C)(C)SSC(C)(C)[C@@H](C(=O)N[C@@H](Cc2ccc(OCCN)cc2)C(=O)N[C@@H](Cc2ccc3ccccc3c2)C(=O)NC2(C(=O)N[C@@H](CCC(=O)O)C(=O)N[C@@H](CC(N)=O)C(=O)N[C@@H](Cc3cccnc3)C(=O)N(C)CC(N)=O)CCOCC2)NC1=O [Compound 3] (Ac-[Pen]HT[Trp(7-Me)]K(Ac)[Pen][AEF][2Nal][Thp]EN[3Pal][Sar]-NH2; disulfide 1-6)	6.6 pM	1360 pM	174 pM	–	–	–	–	–
CC(=O)N[C@H]1CC(=O)NCC[C@@H](C(=O)N[C@@H](Cc2ccc(OCCN)cc2)C(=O)N[C@@H](Cc2ccc3ccccc3c2)C(=O)NC2(C(=O)N[C@@H](CCC(=O)O)C(=O)N[C@@H](CC(N)=O)C(=O)N[C@@H](Cc3cccnc3)C(=O)N(C)CC(N)=O)CCOCC2)NC(=O)[C@H](CCC(N)=O)NC(=O)[C@H](Cc2c[nH]c3c(C)cccc23)NC(=O)[C@H]([C@@H](C)O)NC(=O)[C@H](Cc2c[nH]cn2)NC1=O [Compound 22] (Ac-DHT[Trp(7-Me)]Q[Dab][AEF][2Nal][Thp]EN[3Pal][Sar]-NH2; lactam 1-6)	15.7 pM	–	129 pM	–	–	–	–	–
CC(=O)N[C@@H]1C(=O)N[C@@H](Cc2c[nH]cn2)C(=O)N[C@@H]([C@@H](C)O)C(=O)N[C@@H](Cc2c[nH]c3c(C)cccc23)C(=O)N[C@@H](CCCNC(N)=O)C(=O)N[C@H](C(=O)N[C@@H](Cc2ccc(OCCN)cc2)C(=O)N[C@@H](Cc2ccc3ccccc3c2)C(=O)NC2(C(=O)N[C@@H](CCC(=O)O)C(=O)N[C@@H](CC(N)=O)C(=O)N[C@@H](Cc3cccnc3)C(=O)N(C)CC(N)=O)CCOCC2)C(C)(C)SSC1(C)C [Compound 2] (Ac-[Pen]HT[Trp(7-Me)][Cit][Pen][AEF][2Nal][Thp]EN[3Pal][Sar]-NH2; disulfide 1-6)	6.8 pM	1210 pM	76.8 pM	–	–	–	–	–
CC(=O)NC1C(=O)N[C@@H](Cc2c[nH]cn2)C(=O)N[C@@H]([C@@H](C)O)C(=O)N[C@@H](Cc2c[nH]c3c(C4CC4)cccc23)C(=O)N[C@@H](CCC(N)=O)C(=O)N[C@H](C(=O)N[C@@H](Cc2ccc(OCCN)c3c2CCC3)C(=O)N[C@@H](Cc2ccc3ccccc3c2)C(=O)NC2(C(=O)N[C@@H](CCC(=O)O)C(=O)N[C@@H](CC(N)=O)C(=O)N[C@@H](Cc3cccnc3)C(=O)N(C)CC(N)=O)CCS(=O)(=O)CC2)C(C)(C)SSC12CC2 (stereo partly drawn) [Compound 24] (Ac-[X1]HT[Trp(7-cPr)]Q[Pen][Phe(4-OC2H4NH2,2,3-(CH2)3)][2Nal][Thp(SO2)]EN[3Pal][Sar]-NH2; disulfide 1-6)	–	9380 pM	63 pM	6770 ± 183 ng·h/mL	2.42 ± 0.064 mL/min/kg	0.225 ± 0.017 L/kg	227 ± 139 ng·h/mL	0.335 ± 0.2%
CC(=O)N[C@@H]1C(=O)N[C@@H](Cc2c[nH]cn2)C(=O)N[C@@H]([C@@H](C)O)C(=O)N[C@@H](Cc2c[nH]c3c(C4CC4)cccc23)C(=O)N[C@@H](CCC(N)=O)C(=O)N[C@H](C(=O)N[C@@H](Cc2ccc(OCCN)cc2)C(=O)N[C@@H](Cc2ccc3ccccc3c2)C(=O)NC2(C(=O)N[C@@H](CCC(=O)O)C(=O)N[C@@H](CC(N)=O)C(=O)N[C@@H](Cc3cccnc3)C(=O)N(C)CC(N)=O)CCOCC2)C(C)(C)SSC1(C)C [Compound 13] (Ac-[Pen]HT[Trp(7-cPr)]Q[Pen][AEF][2Nal][Thp]EN[3Pal][Sar]-NH2; disulfide 1-6)	1 pM	3120 pM	38.4 pM	–	–	–	–	–
CC(=O)N[C@@H]1C(=O)N[C@@H](Cc2c[nH]cn2)C(=O)N[C@@H]([C@@H](C)O)C(=O)N[C@@H](Cc2c[nH]c3c(C)cccc23)C(=O)N[C@@H](CCC(N)=O)C(=O)N[C@H](C(=O)N[C@@H](Cc2ccc(OCCN)cc2)C(=O)N[C@@H](Cc2ccc3ccccc3c2)C(=O)NC2(C(=O)N[C@@H](CCC(=O)O)C(=O)N[C@@H](CC(N)=O)C(=O)N[C@@H](Cc3cccnc3)C(=O)N(C)CC(N)=O)CCOCC2)C(C)(C)SSC1(C)C [Compound 1] (Ac-[Pen]HT[Trp(7-Me)]Q[Pen][AEF][2Nal][Thp]EN[3Pal][Sar]-NH2; disulfide 1-6)	7.1 pM	1100 pM	64.2 pM	–	–	–	–	–
